From ChEMBL document CHEMBL3525898, “Pharmacogenomics of gemcitabine metabolism: functional analysis of genetic variants in cytidine deaminase and deoxycytidine kinase” (Drug Metab Dispos, 2013) come the findings set out here.

Format in all cases: ADME
A short description of series [1]: Activity of human recombinant N-terminal His-tagged DCK Ala119Gly mutant expressed in Escherichia coli BL21(DE3) cells assessed as cytosine-beta-D-arabinofuranoside-5'-MP formation incubated for 3 mins by liquid chromatography-tandem mass spectrometry. The settings on record: 0.05 h.
Series [2] is described as follows: Activity of human recombinant N-terminal His-tagged DCK Pro122Ser mutant expressed in Escherichia coli BL21(DE3) cells assessed as cytosine-beta-D-arabinofuranoside-5'-MP formation incubated for 3 mins by liquid chromatography-tandem mass spectrometry. The settings on record: 0.05 h.
Series [3] can be described thus: Activity of human recombinant N-terminal His-tagged DCK Ile24Val mutant expressed in Escherichia coli BL21(DE3) cells assessed as cytosine-beta-D-arabinofuranoside-5'-MP formation incubated for 3 mins by liquid chromatography-tandem mass spectrometry. The settings on record: 0.05 h.
The nature of series [4]: Ratio of intrinsic clearance for human recombinant N-terminal His-tagged DCK Ile24Val mutant expressed in Escherichia coli BL21(DE3) cells to intrisic clerance for human recombinant N-terminal His-tagged wild type DCK expressed in Escherichia coli BL21(DE3) cells.
Series [5] in a line: Drug metabolism assessed as […] incubated for 1 min in presence of human recombinant N-terminal His-tagged DCK Pro122Ser mutant expressed in Escherichia coli BL21(DE3) cells by liquid chromatography-tandem mass spectrometry.
The nature of series [6]: Drug metabolism assessed as […] incubated for 1 min in presence of human recombinant N-terminal His-tagged DCK Ala119Gly mutant expressed in Escherichia coli BL21(DE3) cells by liquid chromatography-tandem mass spectrometry.
The nature of series [7]: Drug metabolism assessed as […] incubated for 1 min in presence of human recombinant N-terminal His-tagged DCK Ile24Val mutant expressed in Escherichia coli BL21(DE3) cells by liquid chromatography-tandem mass spectrometry.

In general, Km refers to the concentration of substrate that gives half-maximal velocity. For orientation: Vmax means the rate approached at saturating substrate. In the case of `Nc1ccn([C@@H]2O[C@H](CO)[C@@H](O)[C@@H]2O)c(=O)n1` [CYTARABINE], the Km worked out at 2.54 µM in series [1], 1.56 µM in series [2] and 2.45 µM in series [3]. Further, the results for the Vmax in series [1], in series [2] and in series [3] were 580.3 nmol/min/mg, 264 nmol/min/mg and 599.4 nmol/min/mg, respectively.
On to `Nc1ccn([C@@H]2O[C@H](CO)[C@@H](O)C2(F)F)c(=O)n1` [GEMCITABINE], for which, in series [4], the Ratio is recorded as 2. Also, the Km in series [5] worked out at 1.43 µM; in series [6], 1.75 µM; in series [7], 1.52 µM. Moreover, the Vmax in series [5] is 573.2 nmol/min/mg; in series [6] it was 828.1 nmol/min/mg; in series [7], 1234 nmol/min/mg.
